Laboratory results as given in patent publication US20250002450A1, “CATIONIC STEROID COMPOUNDS, METHOD OF OBTAINING THEREOF, FORMULATIONS COMPRISING THEREOF AND THEIR USES” (UNIVERSIDADE DO PORTO, priority 2021, published 2025).
≈ marks a conversion by molar mass, not a printed value.

Columns and labels:
[1] = tested on: E. coli 2252 (COL-resistant); assay: Antibacterial MIC/MBC (broth microdilution); assay type: cell-based, Escherichia coli; conditions: E. coli 2252 (COL-resistant)
Excerpt: (§1) Twelve reference bacterial strains and nine MDR clinically relevant bacterial strains were used in this study. Gram-negative bacteria comprised reference strains E. coli ATCC 25922, K. pneumoniae ATCC 13883, Salmonella enterica serovar Typhimurium CECT 443, P. aeruginosa ATCC 27853, A. baumannii ATCC 19606, C. jejuni ATCC 33560 (ATCC—American Type Culture Collection; CECT—Colección Espanola de Cultivos Tipo); clinical isolates E. coli SA/2, an extended-spectrum β-lactamase (ESBL)-producing strain and P. aeruginosa 33b, a pan-drug-resistant isolate; and animal isolates C. jejuni P5/4, a ciprofloxacin-resistant strain, C. jejuni 4432, C. jejuni 4433, C. jejuni 4448, and E. coli 2252, a COL-resistant strain [42]. Gram-positive strains included S. aureus ATCC 29213, E. faecalis ATCC 29212, S. pyogenes ATCC 19615, and environmental isolates methicillin-resistant S. aureus (MRSA) 66/1 [43], and VAN-resistant enterococci (VRE) E. faecalis B3/101 [44]. Gram-negative fish pathogens Yersinia ruckeri ATCC 29473, Listonella anguillarum ATCC 1924, and Tenacibaculum maritimum ATCC 43397 were also included.
(§2) Strains were kept in Trypto-Casein Soy agar (TSA—Biokar Diagnostics, Allone, Beauvais, France) slants and, before each assay, were sub-cultured in Mueller-Hinton agar (MHA—Biokar Diagnostics, Allone, Beauvais, France). Y. ruckeri ATCC 29473 and L. anguillarum ATCC 1924 were kept in Nutrient Agar (Condalab, Madrid, Spain) and T. maritimum ATCC 43397 was kept in TMM agar (Condalab, Madrid, Spain), and were sub-cultured in the respective culture media before each assay. For S. pyogenes ATCC 19615, CAMHB was supplemented with 3.75% lysed horse blood (LBH—Oxoid, Basingstoke, England), whereas for C. jejuni it was supplemented with 2.5% LHB. Colony-forming unit counts of the inoculum were conducted to determine the initial inoculum size (which should be approximately 5×10^5 CFU/mL). Sterility and growth controls were included in each assay. The 96-well U-shaped untreated polystyrene microtiter plates were incubated for 20 h at 37 degrees C. (42 degrees C. for C. jejuni, in a microaerophilic atmosphere) and the minimal inhibitory concentration (MIC) was determined as the lowest concentration of compound that prevented visible growth. The minimal bactericidal concentration (MBC) was determined by spreading 100 μL of the content of the wells with no visible growth on MH plates. The MBC was determined as the lowest concentration of compound that killed 99.9% of the initial inoculum after overnight incubation at 37 degrees C. Two independent assays were performed for reference and MDR strains.
(§3) An initial screening of the antibacterial activity of the compounds was performed by the Kirby-Bauer disk diffusion method, as recommended by the Clinical and Laboratory Standards Institute (CLSI). Briefly, sterile 6 mm blank paper disks (Oxoid, Basingstoke, England) impregnated with 15 μg of each compound were placed on inoculated MH agar plates. A blank disk with dimethylsulfoxide (DMSO) was used as a negative control. MH inoculated plates were incubated for 18-20 h at 37 degrees C. At the end of incubation, the inhibition halos where measured. The MIC was used to determine the antibacterial activity of each compound, in accordance with the recommendations of the CLSI. Two-fold serial dilutions of the compounds were prepared in Mueller-Hinton Broth 2 (MHB2—Sigma-Aldrich, St. Louis, MO, USA) within the concentration range of 0.062-64 μg/mL. CTX ranging between 0.031-16 μg/mL was used as a control. Sterility and growth controls were included in each assay. Purity checks and colony counts of the inoculum suspensions were also performed in order to ensure that the final inoculum density closely approximates the intended number (5×10^5 CFU/mL). The MIC was determined as the lowest concentration of compound that inhibited growth of the bacteria. The MBC was assessed by spreading 10 μL of culture collected from wells showing no visible growth on MH agar plates. […]

E. coli SA/2 (ESBL) = assay: Antibacterial MIC/MBC (broth microdilution); assay type: cell-based, Escherichia coli; conditions: E. coli SA/2 (ESBL)
Excerpt: as §1, §2, §3

P. aeruginosa 33b (PDR) = assay: Antibacterial MIC/MBC (broth microdilution); assay type: cell-based, Pseudomonas aeruginosa; conditions: P. aeruginosa 33b (PDR)
Excerpt: as §1, §2, §3

[2] = tested on: Acinetobacter baumannii ATCC 19606; assay: Antibacterial MIC/MBC (broth microdilution); assay type: cell-based; conditions: Acinetobacter baumannii ATCC 19606
Excerpt: as §1, §2, §3

[3] = tested on: Campylobacter jejuni ATCC 33560; assay: Antibacterial MIC/MBC (broth microdilution); assay type: cell-based; conditions: Campylobacter jejuni ATCC 33560
Excerpt: as §1, §2, §3

[4] = tested on: Escherichia coli ATCC 25922; assay: Antibacterial MIC/MBC (broth microdilution); assay type: cell-based; conditions: Escherichia coli ATCC 25922
Excerpt: as §1, §2, §3

[5] = tested on: Klebsiella pneumoniae ATCC 13883; assay: Antibacterial MIC/MBC (broth microdilution); assay type: cell-based; conditions: Klebsiella pneumoniae ATCC 13883
Excerpt: as §1, §2, §3

[6] = tested on: Listonella anguilarum ATCC 1924; assay: Antibacterial MIC/MBC (broth microdilution); assay type: cell-based; conditions: Listonella anguilarum ATCC 1924
Excerpt: as §1, §2, §3

[7] = tested on: Pseudomonas aeruginosa ATCC 27853; assay: Antibacterial MIC/MBC (broth microdilution); assay type: cell-based; conditions: Pseudomonas aeruginosa ATCC 27853
Excerpt: as §1, §2, §3

[8] = tested on: Salmonella enterica serovar Typhimurium CECT 443; assay: Antibacterial MIC/MBC (broth microdilution); assay type: cell-based
Excerpt: as §1, §2, §3

[9] = tested on: Staphylococcus aureus ATCC 29213; assay: Antibacterial MIC/MBC (broth microdilution); assay type: cell-based
Excerpt: as §1, §2, §3

[10] = tested on: Yersinia ruckeri ATCC 29473; assay: Antibacterial MIC/MBC (broth microdilution); assay type: cell-based
Excerpt: as §1, §2, §3

C. jejuni 4432 = assay: Antibacterial MIC/MBC (broth microdilution); assay type: cell-based, Campylobacter jejuni
Excerpt: as §1, §2, §3

C. jejuni 4433 = assay: Antibacterial MIC/MBC (broth microdilution); assay type: cell-based, Campylobacter jejuni
Excerpt: as §1, §2, §3

C. jejuni 4448 = assay: Antibacterial MIC/MBC (broth microdilution); assay type: cell-based, Campylobacter jejuni
Excerpt: as §1, §2, §3

C. jejuni P5/4 = assay: Antibacterial MIC/MBC (broth microdilution); assay type: cell-based, Campylobacter jejuni
Excerpt: as §1, §2, §3

[11] = tested on: Tenacibaculum maritimum ATCC 43397; assay: Antibacterial disk diffusion; assay type: cell-based; conditions: Tenacibaculum maritimum ATCC 43397, footnote *
Excerpt: as §1, §2, §3

S. aureus 66/1 (MRSA) = assay: Antibacterial MIC/MBC (broth microdilution); assay type: cell-based, Staphylococcus aureus
Excerpt: as §1, §2, §3

E. faecalis B3/101 (VRE) = assay: Antibacterial MIC/MBC (broth microdilution); assay type: cell-based, Enterococcus faecalis; conditions: E. faecalis B3/101 (VRE)
Excerpt: as §1, §2, §3

[12] = tested on: Enterococcuss faecalis ATCC 29212; assay: Antibacterial MIC/MBC (broth microdilution); assay type: cell-based, Enterococcus faecalis; conditions: Enterococcuss faecalis ATCC 29212
Excerpt: as §1, §2, §3

[13] = tested on: Streptococcuss pyogenes ATCC 19615; assay: Antibacterial MIC/MBC (broth microdilution); assay type: cell-based, Streptococcus pyogenes; conditions: Streptococcuss pyogenes ATCC 19615
Excerpt: as §1, §2, §3

E. coli ATCC 25922 [14] = assay: Membrane integrity, propidium iodide influx assay (SYTO 9/PI); assay type: cell-based, Escherichia coli; conditions: 0, 1, 18 h
Description: The influx of PI in E. coli ATCC 25922 treated with 2×MIC, MIC, and ½×MIC of compound 1 was evaluated using a commercial kit that includes fluorescent nucleic acid stains SYTO® 9 and PI. SYTO® 9 can enter cells with intact or damaged membranes, generally labeling both, whereas PI only penetrates cells with severe membrane lesions, causing a reduction in SYTO® 9 fluorescence when both dyes are present.
In these assays, COL and AMP were used as controls. COL is a polycationic antimicrobial peptide with a complex mode of action, that ultimately solubilizes the bacterial cell membrane. AMP is an aminopenicillin that inhibits cell wall synthesis by inhibiting penicillin-binding proteins. E. coli ATCC 25922 cells were treated with compound 1 and, at several time-points (0, 1, and 18 h), samples were taken, and SYTO® 9/PI ratio was determined ([FIG. 4]). The entrance of PI is reflected in a reduction of this ratio.
Briefly, E. coli ATCC 25922 colonies from overnight cultures in MHA were suspended in CAMHB to prepare an inoculum with a final concentration of approximately 5×10^5 CFU/mL. The tubes were incubated overnight at 36° C. in a water bath with shaking. Following this, the cell suspensions were centrifuged at 3500 rpm for 15 min, the supernatant was removed, the cells were carefully resuspended in fresh CAMHB and the suspension was adjusted to 0.5 McFarland. An aliquot of this suspension was then added to each tube of CAMHB alone (control) or CAMHB plus an appropriate amount of test compound. […] The tubes were incubated at 36 degrees C. in a water bath with shaking and, at pre-established time points (0, 1, and 18 h), […] aliquots were retrieved for further analysis. After the exposure time, cells were washed two times, resuspended in 0.85% NaCl, and 100 μL of each cell suspension was distributed in the wells of a microtiter plate, in triplicate. 100 μL of a mixture of 30 μM PI and 5 μM SYTO® 9 prepared in ultrapure water were added to each well, and the plates were incubated at room temperature, in the dark, for 15 min. The fluorescence intensity of the stained bacterial suspensions was determined using a microplate reader (Synergy HT, BioTek Instruments, Winooski, VT, USA) by two consecutive measurements with excitation wavelength 485 nm and emission wavelength 528 nm (SYTO® 9) or 590 nm (PI). Data were analyzed by subtracting background fluorescence from each sample, dividing the fluorescence intensity of SYTO® 9 by fluorescence intensity of PI, and the results are presented as a percentage of control. Three independent assays were performed in triplicate for each experimental condition.

E. coli ATCC 25922 [15] = assay: Enzymatic/metabolic activity, MTT assay; assay type: cell-based, Escherichia coli; conditions: 0, 1, 18 h
Description: To determine whether compound 1 could also affect enzymatic activity, 2-(4,5-dimethyl-2-thiazolyl)-3,5-diphenyl-2H-tetrazolium bromide (MTT) assay was performed. This assay can also be used as an indirect measure of cellular viability, as tetrazolium salts are reduced to purple formazan by metabolically active cells. E. coli ATCC 25922 cells were treated with compound 1 and COL and AMP were used as controls, as described above. Measurements were made at 0, 1, and 18 h.
Enzymatic activity was evaluated by the MTT assay, as previously described, with some modifications. Cell suspensions of E. coli ATCC 25922 were prepared as described above, as well as test conditions and controls. At each time point (0, 1, and 18 h), 500 μL aliquots were collected, centrifuged at 3500 rpm for 10 min, the supernatant was removed, and 300 μL of MTT solution (0.5 mg/mL in CAMHB, at 36 degrees C.) (Thiazolyl Blue Tetrazolium Bromide, Alfa Aesar, Ward Hill, MA, USA) were added. After a 30 min incubation at 36° C., the insoluble formazan product resulting from the conversion of MTT by metabolically active cells was solubilized with 300 μL of DMSO. 100 μL of each sample were transferred in duplicate to the wells of a microtiter plate and the extent of the reduction of MTT to formazan was quantified by measuring the absorbance at 570 nm (Thermo Scientific Multiskan® EX, Thermo Fisher Scientific, Waltham, MA, USA). Three independent assays were performed in duplicate, and results are expressed as a percentage of untreated control.

C[C@H](CCC(=O)NCCc1nc2ccccc2[nH]1)[C@H]1CC[C@H]2[C@@H]3CC[C@@H]4C[C@H](O)CC[C@]4(C)[C@H]3C[C@H](O)[C@]12C [Compound 7, (R)—N-(2-(1H-benzo[d]imidazol-2-yl)ethyl)-4-((3R,5R,8R,9S,10S,12S,13R,14S,17R)-3,12-dihydroxy-10,13-dimethylhexadecahydro-1H-cyclopenta[a]phenanthren-17-yl) pentanamide]
MBC [1]: >64 µg/mL
MIC [1]: >64 µg/mL
MBC (E. coli SA/2 (ESBL)): >64 µg/mL
MIC (E. coli SA/2 (ESBL)): >64 µg/mL
MBC (P. aeruginosa 33b (PDR)): >64 µg/mL
MIC (P. aeruginosa 33b (PDR)): >64 µg/mL
MBC [2]: >64 µg/mL
MIC [2]: >64 µg/mL
MBC [3]: >64 µg/mL
MIC [3]: >64 µg/mL
MBC [4]: >64 µg/mL
MIC [4]: >64 µg/mL
MBC [5]: >64 µg/mL
MIC [5]: >64 µg/mL
MBC [6]: >64 µg/mL
MIC [6]: >64 µg/mL
MBC [7]: >64 µg/mL
MIC [7]: >64 µg/mL
MBC [8]: >64 µg/mL
MIC [8]: >64 µg/mL
MBC [9]: >64 µg/mL
MIC [9]: 8 µg/mL (≈ 14.9 µM)
MBC [10]: >64 µg/mL
MIC [10]: >64 µg/mL
MBC (C. jejuni 4432): >64 µg/mL
MIC (C. jejuni 4432): >64 µg/mL
MBC (C. jejuni 4433): >64 µg/mL
MIC (C. jejuni 4433): >64 µg/mL
MBC (C. jejuni 4448): >64 µg/mL
MIC (C. jejuni 4448): >64 µg/mL
MBC (C. jejuni P5/4): >64 µg/mL
MIC (C. jejuni P5/4): >64 µg/mL
Inhibition zone diameter (disk diffusion) [11]: 9 mm
MBC (S. aureus 66/1 (MRSA)): >64 µg/mL
MIC (S. aureus 66/1 (MRSA)): 16 µg/mL (≈ 29.9 µM)
MBC (E. faecalis B3/101 (VRE)): >64 µg/mL
MIC (E. faecalis B3/101 (VRE)): >64 µg/mL
MBC [12]: >64 µg/mL
MIC [12]: >64 µg/mL
MBC [13]: >64 µg/mL
MIC [13]: >64 µg/mL

colistin
MIC [4]: 1 µg/mL
reduction in SYTO 9/PI ratio vs untreated control (E. coli ATCC 25922 [14]; 1 μg/mL): only a significant reduction at 1 h
reduction in SYTO 9/PI ratio vs untreated control (E. coli ATCC 25922 [14]; 8 μg/mL): statistically significant
metabolic activity (MTT) vs untreated control (E. coli ATCC 25922 [15]; 1 μg/mL): only a significant reduction at 1 h
metabolic activity (MTT) vs untreated control (E. coli ATCC 25922 [15]; 8 μg/mL): significant reduction of metabolic activity at all time points
